# How the values were obtained:
# MOLM-13 = system: MOLM-13; parameters: method as in data on file, Fosun Pharma; details: ref data on file, Fosun Pharma; cited from earlier work
# Unbound fraction = type: in vitro ADME
structure (smiles),measurement,setting,value
CN1CCN(Cc2ccc(NC(=O)c3[nH]ncc3Nc3ncnc4[nH]ccc34)cc2)CC1 [FN-1501],IC50,MOLM-13,5.2 ng/mL
same,Unbound fraction,Unbound fraction,30%

# From article PMC10177510, “A Multicenter, Open-Label, Phase I/II Study of FN-1501 in Patients with Advanced Solid Tumors” (Cancers, 2023)
